These molecules were tested against human PDE4D catalytic domain (UniProt no. Q08499) (Homo sapiens (Human), UniProt Q08499) (assay: PDE4 assay (TR-FRET, FAM-cAMP cleavage)). Conditions: human PDE4D catalytic domain; molar concentration giving 50% inhibition of substrate cleavage; read-out: PDE4 IC50 range.
Assay type: biochemical
Summary of the method: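 PDE4D catalytic domain ([…]) was incubated with unlabelled cAMP plus FAM-cAMP and titrated compound, stopped with binding buffer of metal-ion nanoparticles and Tb donor. AMP generation read by TR-FRET; IC50 as 50% inhibition of cleavage versus controls, reported as nM ranges.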

human PDE4D catalytic domain, sequence (Q08499 380-740 limits assumed): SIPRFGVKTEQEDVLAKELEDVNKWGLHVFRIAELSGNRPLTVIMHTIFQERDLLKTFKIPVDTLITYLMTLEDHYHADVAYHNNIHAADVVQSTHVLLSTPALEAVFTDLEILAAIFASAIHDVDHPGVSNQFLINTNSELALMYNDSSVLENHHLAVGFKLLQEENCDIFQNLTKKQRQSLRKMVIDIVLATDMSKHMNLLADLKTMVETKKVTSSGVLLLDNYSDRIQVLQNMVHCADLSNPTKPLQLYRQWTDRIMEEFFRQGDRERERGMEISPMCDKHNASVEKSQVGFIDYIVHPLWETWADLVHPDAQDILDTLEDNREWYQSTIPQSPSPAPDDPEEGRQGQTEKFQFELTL

Question: `CCc1nn(CCCOC(=O)c2cc(Cl)ccc2C)c2c1C(=O)NCC1(CCOCC1)C2` [Example 75, 3-(3-ethyl-4-oxo-spiro[6,8-dihydro-5H-pyrazolo[4,3-c]azepine-7,4′-tetrahydropyran]-1-yl)propyl 5-chloro-2-methyl-benzoate] was tested. Which IC50 did it give?
Answer: < 100 nM

Question: Which IC50 does the source give for `CCc1nn(C[C@@H](C)COC(=O)c2ccc(C#N)c(F)c2)c2c1C(=O)NCC1(CCOCC1)C2` [Example 185, [(2R)-3-(3-ethyl-4-oxo-spiro[6,8-dihydro-5H-pyrazolo[4,3-c]azepine-7,4′-tetrahydropyran]-1-yl)-2-methyl-propyl] 4-cyano-3-fluoro-benzoate] here?
Answer: < 100 nM

Question: With `CCc1nn(CCCOC(=O)c2ccc(Cl)c(F)c2)c2c1C(=O)NCC1(CCOCC1)C2` [Example 81, 3-(3-ethyl-4-oxo-spiro[6,8-dihydro-5H-pyrazolo[4,3-c]azepine-7,4′-tetrahydropyran]-1-yl)propyl 4-chloro-3-fluoro-benzoate] as the molecule, how does the IC50 read?
Answer: < 100 nM

Question: `CCc1nn(C[C@@H](C)COC(=O)c2ccc(S(=O)(=O)N3CCN(C(C)=O)CC3)cc2)c2c1C(=O)NCC1(CCOCC1)C2` [Example 250, [(2R)-3-(3-ethyl-4-oxo-spiro[6,8-dihydro-5H-pyrazolo[4,3-c]azepine-7,4′-tetrahydropyran]-1-yl)-2-methyl-propyl] 4-(4-acetylpiperazin-1-yl)sulfonylbenzoate] was tested. Which IC50 did it give?
Answer: < 100 nM

Question: `CCc1nn(C[C@@H](C)COC(=O)c2c(C)cccc2F)c2c1C(=O)NCC1(CCOCC1)C2` [Example 174, [(2R)-3-(3-ethyl-4-oxo-spiro[6,8-dihydro-5H-pyrazolo[4,3-c]azepine-7,4′-tetrahydropyran]-1-yl)-2-methyl-propyl] 2-fluoro-6-methyl-benzoate] was tested. Which IC50 did it give?
Answer: < 100 nM

Question: How did the IC50 turn out when `CCc1nn(C[C@@H](C)COC(=O)c2ccc(C(=O)N3CCOCC3)cc2)c2c1C(=O)NCC1(CCOCC1)C2` [Example 260, [(2R)-3-(3-ethyl-4-oxo-spiro[6,8-dihydro-5H-pyrazolo[4,3-c]azepine-7,4′-tetrahydropyran]-1-yl)-2-methyl-propyl] 4-(morpholine-4-carbonyl)benzoate] was run?
Answer: < 100 nM

Question: Which IC50 does the source give for `CCc1nn(C[C@@H](C)COC(=O)c2ccc(C(=O)N3CCCC3)cc2)c2c1C(=O)NCC1(CCOCC1)C2` [Example 257, [(2R)-3-(3-ethyl-4-oxo-spiro[6,8-dihydro-5H-pyrazolo[4,3-c]azepine-7,4′-tetrahydropyran]-1-yl)-2-methyl-propyl] 4-(pyrrolidine-1-carbonyl)benzoate] here?
Answer: < 100 nM

Question: With `CCc1nn(C[C@@H](C)COC(=O)c2ccc(F)c(Cl)c2)c2c1C(=O)NCC1(CCOCC1)C2` [Example 204, [(2R)-3-(3-ethyl-4-oxo-spiro[6,8-dihydro-5H-pyrazolo[4,3-c]azepine-7,4′-tetrahydropyran]-1-yl)-2-methyl-propyl] 3-chloro-4-fluoro-benzoate] as the molecule, how does the IC50 read?
Answer: < 100 nM

Question: `CCc1nn(C[C@@H](C)COC(=O)c2ccc(C(=O)N(C)C)cc2)c2c1C(=O)NCC1(CCOCC1)C2` [Example 255, [(2R)-3-(3-ethyl-4-oxo-spiro[6,8-dihydro-5H-pyrazolo[4,3-c]azepine-7,4′-tetrahydropyran]-1-yl)-2-methyl-propyl] 4-(dimethylcarbamoyl)benzoate] was tested. Which IC50 did it give?
Answer: < 100 nM

Question: `CCc1nn(CCCOC(=O)C2CCC(F)(F)CC2)c2c1C(=O)NCC1(CCOCC1)C2` [Example 49, 3-(3-ethyl-4-oxo-spiro[6,8-dihydro-5H-pyrazolo[4,3-c]azepine-7,4′-tetrahydropyran]-1-yl)propyl 4,4-difluorocyclohexane-carboxylate] was tested. Which IC50 did it give?
Answer: 100 to 500 nM

Question: For `CCc1nn(C[C@@H](C)COC(=O)c2cc(C(F)(F)F)ccc2Cl)c2c1C(=O)NCC1(CCOCC1)C2` [Example 241, [(2R)-3-(3-ethyl-4-oxo-spiro[6,8-dihydro-5H-pyrazolo[4,3-c]azepine-7,4′-tetrahydropyran]-1-yl)-2-methyl-propyl] 2-chloro-5-(trifluoromethyl)benzoate], which IC50 is on record?
Answer: < 100 nM

Question: `CCc1nn(CCCOC(=O)c2cccc(C(=O)N(C)C)c2)c2c1C(=O)NCC1(CCOCC1)C2` [Example 153, 3-(3-ethyl-4-oxo-spiro[6,8-dihydro-5H-pyrazolo[4,3-c]azepine-7,4′-tetrahydropyran]-1-yl)propyl 3-(dimethylcarbamoyl)-benzoate] was tested. Which IC50 did it give?
Answer: < 100 nM

Question: Which IC50 does the source give for `CCc1nn(CCCOC(=O)c2ccc3c(c2)OCO3)c2c1C(=O)NCC1(CCOCC1)C2` [Example 57, 3-(3-ethyl-4-oxo-spiro[6,8-dihydro-5H-pyrazolo[4,3-c]azepine-7,4′-tetrahydropyran]-1-yl)propyl 1,3-benzodioxole-5-carboxylate] here?
Answer: < 100 nM

Question: For `CCc1nn(CCCOC(=O)c2c(F)cccc2F)c2c1C(=O)NCC1(CCOCC1)C2` [Example 46, 3-(3-ethyl-4-oxo-spiro[6,8-dihydro-5H-pyrazolo[4,3-c]azepine-7,4′-tetrahydropyran]-1-yl)propyl 2,6-difluorobenzoate], which IC50 is on record?
Answer: < 100 nM

Question: For `CCc1nn(C[C@@H](C)COC(=O)c2ccc(Cl)c(C(F)(F)F)c2)c2c1C(=O)NCC1(CCOCC1)C2` [Example 238, [(2R)-3-(3-ethyl-4-oxo-spiro[6,8-dihydro-5H-pyrazolo[4,3-c]azepine-7,4′-tetrahydropyran]-1-yl)-2-methyl-propyl] 4-chloro-3-(trifluoromethyl)benzoate], which IC50 is on record?
Answer: < 100 nM

Question: Which IC50 does the source give for `CCc1nn(C[C@@H](C)COC(=O)c2cccc(S(=O)(=O)N3CCCC3)c2)c2c1C(=O)NCC1(CCOCC1)C2` [Example 246, [(2R)-3-(3-ethyl-4-oxo-spiro[6,8-dihydro-5H-pyrazolo[4,3-c]azepine-7,4′-tetrahydropyran]-1-yl)-2-methyl-propyl] 3-pyrrolidin-1-ylsulfonylbenzoate] here?
Answer: < 100 nM

Question: Which IC50 does the source give for `CCc1nn(CCCOC(=O)c2ccc(S(=O)(=O)C(C)C)cc2)c2c1C(=O)NCC1(CCOCC1)C2` [Example 130, 3-(3-ethyl-4-oxo-spiro[6,8-dihydro-5H-pyrazolo[4,3-c]azepine-7,4′-tetrahydropyran]-1-yl)propyl 4-isopropylsulfonylbenzoate] here?
Answer: < 100 nM

Same assay, conditions: read-out: PDE4 IC50 range

Question: `CCc1nn(CCCCOC(=O)c2ccc(S(C)(=O)=O)cc2)c2c1C(=O)NCC1(CCOCC1)C2` [Example 370, 4-(3-ethyl-4-oxo-spiro[6,8-dihydro-5H-pyrazolo[4,3-c]azepine-7,4′-tetrahydropyran]-1-yl)butyl 4-methylsulfonylbenzoate] was tested. Which IC50 did it give?
Answer: 100 to 500 nM

Question: For `CCc1nn(CCCCOC(=O)c2cccc(C)c2)c2c1C(=O)NCC1(CCOCC1)C2` [Example 364, 4-(3-ethyl-4-oxo-spiro[6,8-dihydro-5H-pyrazolo[4,3-c]azepine-7,4′-tetrahydropyran]-1-yl)butyl 3-methylbenzoate], which IC50 is on record?
Answer: < 100 nM

Question: How did the IC50 turn out when `CCc1nn(CCCCOC(=O)c2cccc(S(=O)(=O)NC)c2)c2c1C(=O)NCC1(CCOCC1)C2` [Example 372, 4-(3-ethyl-4-oxo-spiro[6,8-dihydro-5H-pyrazolo[4,3-c]azepine-7,4′-tetrahydropyran]-1-yl)butyl 3-(methylsulfamoyl)benzoate] was run?
Answer: < 100 nM

Question: Which IC50 does the source give for `CCc1nn(C[C@H](C)COC(=O)c2ccc(Cl)cc2)c2c1C(=O)NCC1(CCOCC1)C2` [Example 279, [(2S)-3-(3-ethyl-4-oxo-spiro[6,8-dihydro-5H-pyrazolo[4,3-c]azepine-7,4′-tetrahydropyran]-1-yl)-2-methyl-propyl] 4-chlorobenzoate] here?
Answer: < 100 nM

Question: For `CCc1nn(CC(C)(C)COC(=O)c2ccc(S(=O)(=O)N3CCOCC3)cc2)c2c1C(=O)NCC1(CCOCC1)C2` [Example 322, [3-(3-ethyl-4-oxo-spiro[6,8-dihydro-5H-pyrazolo[4,3-c]azepine-7,4′-tetrahydropyran]-1-yl)-2,2-dimethyl-propyl] 4-morpholinosulfonylbenzoate], which IC50 is on record?
Answer: < 100 nM

Question: `CCc1nn(C[C@@H](C)COC(=O)c2cccc(C(N)=O)c2)c2c1C(=O)NCC1(CCOCC1)C2` [Example 263, [(2R)-3-(3-ethyl-4-oxo-spiro[6,8-dihydro-5H-pyrazolo[4,3-c]azepine-7,4′-tetrahydropyran]-1-yl)-2-methyl-propyl] 3-carbamoylbenzoate] was tested. Which IC50 did it give?
Answer: < 100 nM

Question: `CCc1nn(C[C@@H](C)COC(=O)c2cccc(C(=O)N3CCN(C(C)=O)CC3)c2)c2c1C(=O)NCC1(CCOCC1)C2` [Example 273, [(2R)-3-(3-ethyl-4-oxo-spiro[6,8-dihydro-5H-pyrazolo[4,3-c]azepine-7,4′-tetrahydropyran]-l-yl)-2-methyl-propyl] 3-(4-acetylpiperazine-1-carbonyl)benzoate] was tested. Which IC50 did it give?
Answer: < 100 nM

Question: For `CCc1nn(CC(C)(C)COC(=O)c2cccc(C(=O)N3CCNCC3)c2)c2c1C(=O)NCC1(CCOCC1)C2` [Example 346, [3-(3-ethyl-4-oxo-spiro[6,8-dihydro-5H-pyrazolo[4,3-c]azepine-7,4′-tetrahydropyran]-1-yl)-2,2-dimethyl-propyl] 3-(piperazine-1-carbonyl)benzoate], which IC50 is on record?
Answer: < 100 nM

Question: For `CCc1nn(CC(C)(C)COC(=O)c2ccc(C(=O)N3CCCCC3)cc2)c2c1C(=O)NCC1(CCOCC1)C2` [Example 334, [3-(3-ethyl-4-oxo-spiro[6,8-dihydro-5H-pyrazolo[4,3-c]azepine-7,4′-tetrahydropyran]-1-yl)-2,2 dimethyl-propyl] 4-(piperidine-1-carbonyl)benzoate], which IC50 is on record?
Answer: < 100 nM

Question: `CCc1nn(CC(C)(C)COC(=O)c2cccc(C(=O)N3CCOCC3)c2)c2c1C(=O)NCC1(CCOCC1)C2` [Example 347, [3-(3-ethyl-4-oxo-spiro[6,8-dihydro-5H-pyrazolo[4,3-c]azepine-7,4′-tetrahydropyran]-1-yl)-2,2-dimethyl-propyl] 3-(morpholine-4-carbonyl)benzoate] was tested. Which IC50 did it give?
Answer: < 100 nM

Question: `CCc1nn(CC(C)(C)COC(=O)c2ccc(C(F)(F)F)cc2)c2c1C(=O)NCC1(CCOCC1)C2` [Example 304, [3-(3-ethyl-4-oxo-spiro[6,8-dihydro-5H-pyrazolo[4,3-c]azepine-7,4′-tetrahydropyran]-1-yl)-2,2-dimethyl-propyl] 4-(trifluoromethyl)benzoate] was tested. Which IC50 did it give?
Answer: < 100 nM

— patent publication US10906915B2, “Substituted pyrazoloazepin-4-ones and their use as phosphodiesterase inhibitors” (LEO Pharma A/S, priority 2016, dated 2021)
